The source made the active and inactive calls. No cut-off for these calls is given here. Some results are limits rather than exact numbers.

In one data set the test system is Panagrellus redivivus. Kind of data set: Nematicidal activity against Panagrellus redivivus assessed as mortality at 100 ug/ml after 72 hrs by light binocular microscopic analysis (reference value: 7.1 +/- 0.9%). The data set is classed as functional.
Another data set deals with Spodoptera exigua. Kind of data set: Antifeedant activity against beet armyworm after 24 hrs. The class given is functional, organism-based.
The next data set deals with SMMC-7721. Kind of data set: Cytotoxicity against human SMMC7721 cells after 48 hrs by MTS assay. The note with it: SMMC-7721, 48 h. The class given is functional, cell-based.
The test system of another data set is HL-60. Put plainly: Cytotoxicity against human HL60 cells after 48 hrs by MTS assay. The data set is classed as functional, cell-based. The note with it: HL-60, 48 h.
The next data set relates to MCF7. Kind of data set: Cytotoxicity against human MCF7 cells after 48 hrs by MTS assay. The class given is functional, cell-based. The note with it: MCF7, 48 h. Background: Tetrazolium dyes change colour on reduction, which living cells bring about.
The test system of another data set is A549. Kind of data set: Cytotoxicity against human A549 cells after 48 hrs by MTS assay. The data set is classed as functional, cell-based. The note with it: A549, 48 h.
Another data set concerns SW480. Put plainly: Cytotoxicity against human SW480 cells after 48 hrs by MTS assay. The data set is classed as functional, cell-based. The note with it: SW480, 48 h.
Data set [1] can be described thus: Antifungal activity against Cylindrocarpon musae at 50 ug/disc after 2 days by disk diffusion method. The class given is functional. For orientation: In agar diffusion tests the substance spreads into inoculated agar from a disc or well.
In data set [2] the test system is Fusarium oxysporum f. sp. niveum. Kind of data set: Antifungal activity against Fusarium oxysporum f. sp. niveum at 50 ug/disc after 2 days by disk diffusion method. The data set is classed as functional. The note with it: for zone of inhibition at 50 µg/disc: 48 h, read-out: DIZ.
The test system of data set [3] is Colletotrichum gloeosporioides. Put plainly: Antifungal activity against Colletotrichum gloeosporioides at 50 ug/disc after 2 days by disk diffusion method. The data set is classed as functional. The note with it: for zone of inhibition at 50 µg/disc: 48 h, read-out: DIZ.
The subject of a further data set is Rhizoctonia solani. Kind of data set: Antifungal activity against Rhizoctonia solani at 50 ug/disc after 2 days by disk diffusion method. The data set is classed as functional. The note with it: for zone of inhibition at 50 µg/disc: 48 h, read-out: DIZ.
The subject of another data set is HCT-116. Kind of data set: Cytotoxicity against human HCT116 cells. The data set is classed as functional, cell-based.
Data set [4] can be described thus: Cytotoxicity against human WM266.4 cells. The data set is classed as functional, cell-based. The note with it: WM 266-4.
Data set [5] concerns RAW264.7. Put plainly: Inhibition of LPS-induced nitric oxide production in mouse RAW264.7 cells by Griess method. The class given is functional, cell-based. In general terms: Nitrite, measured by Griess reagent, commonly stands in for NO production.
Data set [6] deals with RAW264.7. Kind of data set: Cytotoxicity against mouse RAW264.7 cells by MTT assay. The data set is classed as cell-based.
Data set [7] relates to RAW264.7. Put plainly: Ratio of MG132 IC50 to compound IC50 for LPS-induced nitric oxide production in mouse RAW264.7 cells. The data set is classed as functional.

The mortality is the percentage killed. The term IC50 denotes the concentration that inhibits the measured activity by half. Low values mean greater potency in that assay, high ones weaker potency in that assay. On to `COc1ccc([C@@H]2CC3=CC[C@@]4(C)[C@@H](CC(=O)[C@]5(C)[C@@H]4C=C[C@]46C[C@@]45CC[C@H]6[C@@H]4C[C@@]5(OC[C@](C)(OC(=O)CCc6ccc(O)cc6)[C@H]5O)OC4=O)[C@@]3(C)CO2)cc1`, for which the mortality at 100 µg/mL in the data set on Panagrellus redivivus came out at 7.8%. The same molecule displayed an EC50 in the data set with Spodoptera exigua of 28.9 microg/cm2. Besides, the IC50 with SMMC-7721, in the data set with HL-60, in the data set on MCF7, in the data set with A549 and in the data set on SW480 was greater than 40 µM each time.

With `C[C@]12CC=C3C[C@@H](c4ccccc4)OC[C@]3(C)[C@@H]1C[C@@H](O)[C@]1(C)[C@@H]2C=C[C@]23C[C@]12CC[C@H]3[C@@H]1C[C@@]2(OC[C@](C)(OC(=O)CCc3ccc(O)cc3)[C@H]2O)OC1=O`, the mortality at 100 µg/mL with Panagrellus redivivus was 61.8%. This molecule returned an EC50 in the data set on Spodoptera exigua of 9.8 microg/cm2.

As to `C[C@]1(OC(=O)C[C@@H](O)c2ccc(O)cc2)CO[C@@]2(C1)OC(=O)[C@H]([C@@H]1CC[C@]34C[C@]13C=C[C@@H]1[C@@]3(C)CC=C5C[C@@H](c6ccccc6)OC[C@]5(C)[C@@H]3CC(=O)[C@]14C)[C@H]2O`, the half-inhibitory concentration (IC50) in the data set with SMMC-7721 worked out at 18.7 µM; in the data set on HL-60, 5.1 µM; in the data set with MCF7 it was 3.5 µM; in the data set on A549 it was 3 µM; in the data set on SW480, 21 µM.

On to `COC(=O)[C@@H](C[C@@]1(OC)C[C@](C)(O)CO1)[C@@H]1CC[C@]23C[C@]12C=C[C@@H]1[C@@]2(C)CC=C4C[C@@H](c5ccccc5)OC[C@]4(C)[C@@H]2CC(=O)[C@]13C`, for which the EC50 in the data set on Spodoptera exigua is on record as 3.1 microg/cm2.

NYSTATIN: the inhibition zone (IZ) in [1] was 16.6 mm; in [2] it was 12 mm; in [3] it was 14.5 mm; with Rhizoctonia solani it was 14.7 mm.

As to `CC(=O)O[C@@]1(C)CO[C@@]2(C1)OC(=O)[C@H]([C@@H]1CC[C@]34C[C@]13C=C[C@@H]1[C@@]3(C)CC=C5C[C@@H](c6ccccc6)OC[C@]5(C)[C@@H]3[C@@H](O)C(=O)[C@]14C)[C@H]2O`, the EC50 in the data set on HCT-116 stood at 0.0099 µM; in data set [4], 0.078 µM.

On to `C/C(=C\[C@H]1C[C@@H]([C@@H]2CC[C@]34C[C@]23C=C[C@@H]2[C@@]3(C)CC=C5C[C@@H](c6ccccc6)OC[C@]5(C)[C@@H]3C[C@@H](O)[C@]24C)C(=O)O1)CO` [DICHAPETALIN A], for which the mortality at 100 µg/mL in the data set on Panagrellus redivivus was determined as 15.3%. The same molecule displayed an EC50 in the data set on Spodoptera exigua of 3.1 microg/cm2. Moreover, the inhibition zone (IZ) in data set [1] came out at 12.8 mm. The “diameter of the inhibition zone (DIZ)” value in data set [2] and in data set [3] was “inactive” throughout. In the data set with RAW264.7 [5], this molecule registered an IC50 of 0.02 µM. Moreover, the zone of inhibition at 50 µg/disc in the data set with Rhizoctonia solani was determined as 10.5 mm. The Activity result with RAW264.7 [6] is reported as “Non-toxic”. Also, the “Ratio IC50” value in the data set with RAW264.7 [7] is given as 20.

For the molecule `COc1ccc([C@@H]2CC3=CC[C@@]4(C)[C@@H](CC(=O)[C@]5(C)[C@@H]4C=C[C@]46C[C@@]45CC[C@H]6[C@@H]4C[C@]5(C[C@@](C)(OC(=O)C[C@@H](O)c6ccc(O)cc6)CO5)OC4=O)[C@@]3(C)CO2)cc1`, the mortality at 100 µg/mL in the data set on Panagrellus redivivus amounted to 4.8%. This molecule registered an EC50 in the data set on Spodoptera exigua greater than 100 microg/cm2.

In the data set with Spodoptera exigua, `CC(=O)O[C@@]1(C)CO[C@@]2(C[C@@H]([C@@H]3CC[C@]45C[C@]34C=C[C@@H]3[C@@]4(C)CC=C6C[C@@H](c7ccccc7)OC[C@]6(C)[C@@H]4CC(=O)[C@]35C)C(=O)O2)C1` returned an EC50 of 11.7 microg/cm2. The molecule further registered an inhibition zone (IZ) in data set [1] of 13.8 mm. Further, the results for the zone of inhibition at 50 µg/disc in [2] and in data set [3] were 11.5 mm and 10.1 mm, respectively. In addition, the “diameter of the inhibition zone (DIZ)” value in the data set on Rhizoctonia solani was “inactive”.

`C[C@]1(O)CO[C@@]2(C1)OC(=O)[C@H]([C@@H]1CC[C@]34C[C@]13C=C[C@@H]1[C@@]3(C)CC=C5C[C@@H](c6ccccc6)OC[C@]5(C)[C@@H]3CC(=O)[C@]14C)[C@H]2O`: in the data set with Panagrellus redivivus, the mortality at 100 µg/mL was determined as 46.3%.

Consider `C/C(=C\[C@H]1C[C@@H]([C@@H]2CC=C3[C@]4(C)[C@H](O)C[C@@H]5[C@](C)(CC=C6C[C@@H](c7ccccc7)OC[C@@]65C)[C@H]4CC[C@]32C)C(=O)O1)CO`, for which, in the data set on Panagrellus redivivus, the mortality at 100 µg/mL came out at 3%. For the same molecule, the EC50 with Spodoptera exigua is given as 3.4 microg/cm2.

`COc1ccc([C@@H]2CC3=CC[C@]4(C)[C@H]5C=C[C@]67C[C@]6(CC[C@H]7[C@@H]6C[C@H](/C=C(\C)CO)OC6=O)[C@]5(C)[C@H](O)C[C@H]4[C@@]3(C)CO2)cc1` [DICHAPETALIN K]: in the data set on Panagrellus redivivus, the mortality at 100 µg/mL is 4.4%.

With `COC(=O)[C@@H](Cc1cc(C)co1)[C@@H]1CC[C@]23C[C@]12C=C[C@@H]1[C@@]2(C)CC=C4C[C@@H](c5ccccc5)OC[C@]4(C)[C@@H]2CC(=O)[C@]13C`, the mortality at 100 µg/mL in the data set on Panagrellus redivivus came out at 2.5%. In addition, in the data set with Spodoptera exigua, the EC50 is listed as greater than 100 microg/cm2. The IC50 is 24.8 µM in the data set on SMMC-7721; 10.2 µM in the data set with HL-60; 21 µM with MCF7; 17.6 µM in the data set with A549; greater than 40 µM with SW480.

Turning to `C[C@]1(OC(=O)C[C@@H](O)c2ccc(O)cc2)CO[C@@]2(C[C@@H]([C@@H]3CC[C@]45C[C@]34C=C[C@@H]3[C@@]4(C)CC=C6C[C@@H](c7ccccc7)OC[C@]6(C)[C@@H]4CC(=O)[C@]35C)C(=O)O2)C1`, in the data set with Panagrellus redivivus, the mortality at 100 µg/mL was determined as 20.5%. Further, in the data set on Spodoptera exigua, the EC50 turned out to be 78.7 microg/cm2. In addition, the IC50 with SMMC-7721 was greater than 40 µM; in the data set with HL-60 it was greater than 40 µM; in the data set with MCF7 it was 8.2 µM; in the data set on A549 it was 26.8 µM; with SW480 it was greater than 40 µM. Besides, the inhibition zone (IZ) in data set [1] came to 12.8 mm. The zone of inhibition at 50 µg/disc in data set [2] is 12.8 mm; in [3], 12.4 mm; in the data set with Rhizoctonia solani, 13.8 mm.

The record behind these values is ChEMBL document CHEMBL3259686, “Biologically active dichapetalins from Dichapetalum gelonioides” (J Nat Prod, 2014).
